What all share (type): biochemical
One test deals with T1, TYK2 (Homo sapiens, UniProt P29597).
T1 construct: made in house; host or cells: SF9 insect cells (baculovirus)
T1 sequence (P29597 873-1187): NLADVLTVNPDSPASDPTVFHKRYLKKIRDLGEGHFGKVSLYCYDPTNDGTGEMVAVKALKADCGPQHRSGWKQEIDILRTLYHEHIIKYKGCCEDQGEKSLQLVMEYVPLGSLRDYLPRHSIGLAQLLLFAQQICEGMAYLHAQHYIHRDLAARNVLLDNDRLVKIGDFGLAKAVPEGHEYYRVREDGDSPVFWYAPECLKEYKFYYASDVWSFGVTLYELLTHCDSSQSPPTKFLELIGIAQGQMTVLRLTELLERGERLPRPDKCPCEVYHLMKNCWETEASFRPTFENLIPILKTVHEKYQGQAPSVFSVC
In words: TYK2 inhibition (Table 4).

The target of a further test is T2, JAK1 (Homo sapiens, UniProt P23458).
T2 construct: made in house; host or cells: SF9 insect cells (baculovirus)
T2 sequence (P23458 852-1154): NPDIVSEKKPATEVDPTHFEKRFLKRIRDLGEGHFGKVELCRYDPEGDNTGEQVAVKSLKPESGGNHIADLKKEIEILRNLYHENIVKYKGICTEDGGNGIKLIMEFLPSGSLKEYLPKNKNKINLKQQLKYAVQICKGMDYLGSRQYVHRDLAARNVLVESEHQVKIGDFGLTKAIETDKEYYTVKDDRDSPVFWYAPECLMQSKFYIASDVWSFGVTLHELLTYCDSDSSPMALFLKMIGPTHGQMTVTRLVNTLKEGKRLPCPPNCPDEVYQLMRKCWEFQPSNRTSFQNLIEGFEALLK
Description: JAK1 inhibition (Table 4). The settings on record: read-out: JAK1 Ki.

A further test addresses T3, JAK2 (Homo sapiens, UniProt O60674).
T3 construct: made in house; host or cells: SF9 insect cells (baculovirus)
In words: JAK2 inhibition (Table 4). The settings on record: read-out: JAK2 Ki.

For another test, the target named is T4, JAK3 (Homo sapiens, UniProt P52333).
T4 construct: made in house; host or cells: SF9 insect cells (baculovirus)
T4 sequence (P52333 783-1124): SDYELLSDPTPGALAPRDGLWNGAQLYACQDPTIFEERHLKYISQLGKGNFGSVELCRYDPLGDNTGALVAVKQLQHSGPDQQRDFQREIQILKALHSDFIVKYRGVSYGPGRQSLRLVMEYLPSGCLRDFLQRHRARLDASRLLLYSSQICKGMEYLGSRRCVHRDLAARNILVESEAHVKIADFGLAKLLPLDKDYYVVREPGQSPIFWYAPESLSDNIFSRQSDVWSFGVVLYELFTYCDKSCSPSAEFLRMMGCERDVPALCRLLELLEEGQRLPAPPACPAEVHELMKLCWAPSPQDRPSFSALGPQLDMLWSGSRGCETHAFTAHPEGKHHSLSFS
In words: JAK3 inhibition (Table 4). The settings on record: read-out: JAK3 Ki.

We go through 25 compounds from patent US8461328B2, “Tricyclic heterocyclic compounds, compositions and methods of use thereof” (Genentech, Inc., priority 2010, dated 2013).

Molecules are shown by their SMILES. pKi: −log10 of the molar value.

T3 sequence (O60674 812-1132): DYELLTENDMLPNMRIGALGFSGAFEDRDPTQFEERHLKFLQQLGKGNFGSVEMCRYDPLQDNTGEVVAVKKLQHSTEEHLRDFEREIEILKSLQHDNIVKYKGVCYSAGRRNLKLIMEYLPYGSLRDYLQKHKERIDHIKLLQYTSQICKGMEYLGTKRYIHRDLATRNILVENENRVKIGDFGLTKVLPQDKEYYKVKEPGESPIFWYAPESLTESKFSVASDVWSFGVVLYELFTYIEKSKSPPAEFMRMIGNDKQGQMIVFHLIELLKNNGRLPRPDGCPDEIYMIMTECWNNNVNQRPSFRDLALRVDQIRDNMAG

By pKi is commonly meant the negative decadic logarithm of the Ki, by convention in mol/L. Regarding `O=C([C@@H]1CCCN1C1CCC1)N1CCC(n2cnc3cnc4[nH]ccc4c32)CC1` [Example 147, ((S)-1-Cyclobutyl-pyrrolidin-2-yl)-[4-(6H-1,2,3,5,6-tetraaza-as-indacen-1-yl)-piperidin-1-yl]-methanone], the pKi on TYK2 was 5.82; at JAK1, 7.19; at JAK2 it was 6.22.

Consider `c1ccc(CN2CCC(n3c(C4CCOCC4)nc4cnc5[nH]ccc5c43)CC2)cc1` [Example 154, 1-(1-Benzyl-piperidin-4-yl)-2-(tetrahydro-pyran-4-yl)-1,6-dihydro-1,2,3,5,6-tetraaza-as-indacene], for which the figures for the negative-log Ki (pKi) on JAK1, at JAK2 and at JAK3 were 7.82, 7.55 and 8.03, respectively.

On to `c1ccc(CN2CCC(n3c(CN4CCOCC4)nc4cnc5[nH]ccc5c43)CC2)cc1` [Example 155, 1-(1-Benzyl-piperidin-4-yl)-2-morpholin-4-ylmethyl-1,6-dihydro-1,2,3,5,6-tetraaza-as-indacene], for which the negative logarithm of the Ki (pKi) is 6.92 on JAK1, 6.35 on JAK2 and 6.52 on JAK3.

In the case of `CC(C)(C#N)c1nc2cnc3[nH]ccc3c2n1C1CCN(Cc2cnccn2)CC1` [Example 164, 2-Methyl-2-[1-(1-pyrazin-2-ylmethyl-piperidin-4-yl)-1,6-dihydro-1,2,3,5,6-tetraaza-as-indacen-2-yl]-propionitrile], the values for the pKi on JAK1, on JAK2 and at JAK3 were 7.28, 6.89 and 7.24, respectively.

On to `CC(C)(C)OC(=O)N1CCC(n2c(C#N)nc3cnc4[nH]ccc4c32)CC1` [Example 169, 4-(2-Cyano-6H-1,2,3,5,6-tetraaza-as-indacen-1-yl)-piperidine-1-carboxylic acid tert-butyl ester], for which the negative-log Ki (pKi) on TYK2 was 5.53; at JAK1, 6.53; on JAK2, 6.73.

For `CC(C)(O)c1nc2cnc3[nH]ccc3c2n1C1CCN(Cc2ccccc2)CC1` [Example 171, 2-[1-(1-Benzyl-piperidin-4-yl)-1,6-dihydro-1,2,3,5,6-tetraaza-as-indacen-2-yl]-propan-2-ol], the pKi on JAK1 is 7.30; on JAK2, 6.62; at JAK3, 6.99.

`N#Cc1cccc(CC(=O)N2CC[C@@H](n3cnc4cnc5[nH]ccc5c43)C2)c1` [Example 189, 3-{2-oxo-2-[(R)-3-(6H-1,2,3,5,6-tetraaza-as-indacen-1-yl)-pyrrolidin-1-yl]-ethyl}-benzonitrile]: the pKi at TYK2 was 5.85; on JAK1 it was 7.05; at JAK2, 6.44.

For the compound `CN1CCN(CC(=O)N2CCC(n3cnc4cnc5[nH]ccc5c43)CC2)CC1` [Example 193, 2-(4-Methyl-piperazin-1-yl)-1-[4-(6H-1,2,3,5,6-tetraaza-as-indacen-1-yl)-piperidin-1-yl]-ethanone], the figures for the pKi at TYK2, on JAK1 and on JAK2 were 5.50, 6.96 and 6.16, respectively.

Take `O=C(c1nc2cnc3[nH]ccc3c2n1C1CCN(Cc2ccccc2)CC1)N1CCOCC1` [Example 237, [1-(1-Benzyl-piperidin-4-yl)-1,6-dihydro-1,3,5,6-tetraaza-as-indacen-2-yl]-morpholin-4-yl-methanone]: the values for the negative logarithm of the Ki (pKi) at JAK1, at JAK2 and on JAK3 were 6.97, 6.31 and 7.33, respectively.

For the compound `Cc1nc2cnc3[nH]ccc3c2n1C1CCN(C(=O)[C@@H]2CCCN2C)CC1` [Example 285], the pKi on TYK2 is 5.62; on JAK1 it was 7.29; at JAK2 it was 6.40.

With `CC(C)(O)c1nc2cnc3[nH]ccc3c2n1C1CCNCC1` [Example 334, 2-(1-Piperidin-4-yl-1,6-dihydro-1,3,5,6-tetraaza-as-indacen-2-yl)-propan-2-ol], the pKi at JAK1 was 6.86; at JAK2, 5.65; on JAK3 it was 5.59.

In the case of `CC(C)(C)OC(=O)N1CCCC[C@H]1CN[C@H]1CC[C@H](n2cnc3cnc4[nH]ccc4c32)CC1` [Example 564, trans (S)-2-{[4-(6H-1,3,5,6-Tetraaza-as-indacen-1-yl)-cyclohexylamino]-methyl}-piperidine-1-carboxylic acid tert-butyl ester], the figures for the negative logarithm of the Ki (pKi) on JAK1, on JAK2 and at JAK3 were 6.95, 6.15 and 5.58, respectively.

On to `CC(C)(C)OC(=O)N1CCC(n2c(NCCO)nc3cnc4[nH]ccc4c32)CC1` [Example 654, 4-[(2-Hydroxy-ethylamino)-6H-1,2,3,5,6-tetraaza-as-indacen-1-yl]-piperidine-1-carboxylic acid tert-butyl ester], for which the pKi on JAK1 was 6.34; at JAK2, 6.12; on JAK3, 5.68.

For `COCCNc1nc2cnc3[nH]ccc3c2n1C1CCNCC1` [Example 657, (2-Methoxy-ethyl)-(1-piperidin-4-yl-1,6-dihydro-1,2,3,5,6-tetraaza-as-indacen-2-yl)-amine], the pKi on JAK1 was 7.54; on JAK2, 5.89; on JAK3, 6.17.

Regarding `C[C@H](O)c1nc2cnc3[nH]ccc3c2n1[C@@H]1CCCN(C(=O)Cn2ccnc2)C1` [Example 781, 1-{(R)-3-[2-((S)-1-Hydroxy-ethyl)-6H-1,3,5,6-tetraaza-as-indacen-1-yl]-piperidin-1-yl}-2-imidazol-1-yl-ethanone], the pKi is 6.42 on JAK1, 5.83 at JAK2 and 5.40 on JAK3.

Consider `C[C@@H](O)c1nc2cnc3[nH]ccc3c2n1[C@@H]1CCCN(C(=O)CCn2ccnc2)C1` [Example 797, 1-{(R)-3-[2-((R)-1-Hydroxy-ethyl)-6H-1,3,5,6-tetraaza-as-indacen-1-yl]-piperidin-1-yl}-3-imidazol-1-yl-propan-1-one], for which the pKi at JAK1 was 6.80; on JAK2 it was 5.76; on JAK3, 5.79.

In the case of `C[C@@H](O)c1nc2cnc3[nH]ccc3c2n1[C@@H]1CCCN(C(=O)Cn2ccnc2)C1` [Example 798, 1-{(R)-3-[2-((R)-1-Hydroxy-ethyl)-6H-1,3,5,6-tetraaza-as-indacen-1-yl]-piperidin-1-yl}-2-imidazol-1-yl-ethanone], the results for the pKi at JAK1, at JAK2 and on JAK3 were 7.16, 5.58 and 6.05, respectively.

Turning to `CC(C)n1cc(CN2CCC(n3c([C@@H](C)O)nc4cnc5[nH]ccc5c43)CC2)cn1` [Example 824, (R)-1-{1-[1-(1-Isopropyl-1H-pyrazol-4-ylmethyl)-piperidin-4-yl]-1,6-dihydro-1,3,5,6-tetraaza-as-indacen-2-yl}-ethanol], the pKi at JAK1 was 7.61; at JAK2 it was 5.92; at JAK3, 6.22.

Take `Cc1nc(CN2CCC(n3c([C@@H](C)O)nc4cnc5[nH]ccc5c43)CC2)n(C)c1C` [Example 827, (R)-1-{1-[1-(1,4,5-Trimethyl-1H-imidazol-2-ylmethyl)-piperidin-4-yl]-1,6-dihydro-1,3,5,6-tetraaza-as-indacen-2-yl}-ethanol]: the results for the pKi at JAK1, on JAK2 and at JAK3 were 7.13, 5.76 and 5.84, respectively.

Take `Cc1nn(C)cc1CN1CCC(n2c([C@@H](C)O)nc3cnc4[nH]ccc4c32)CC1` [Example 828, (R)-1-{1-[1-(1,3-Dimethyl-1H-pyrazol-4-ylmethyl)-piperidin-4-yl]-1,6-dihydro-1,3,5,6-tetraaza-as-indacen-2-yl}-ethanol]: the results for the pKi on JAK1, on JAK2 and on JAK3 were 7.04, 5.78 and 6.02, respectively.

As to `CCn1cc(CN2CCC(n3c([C@@H](C)O)nc4cnc5[nH]ccc5c43)CC2)c(C)n1` [Example 829, (R)-1-{1-[1-(1-Ethyl-3-methyl-1H-pyrazol-4-ylmethyl)-piperidin-4-yl]-1,6-dihydro-1,3,5,6-tetraaza-as-indacen-2-yl}-ethanol], the values for the pKi at JAK1, on JAK2 and on JAK3 were 7.03, 6.03 and 5.88, respectively.

Take `Cc1ncc(CN2CCC(n3c([C@@H](C)O)nc4cnc5[nH]ccc5c43)CC2)n1C` [Example 830, (R)-1-{1-[1-(2,3-Dimethyl-3H-imidazol-4-ylmethyl)-piperidin-4-yl]-1,6-dihydro-1,3,5,6-tetraaza-as-indacen-2-yl}-ethanol]: the pKi on JAK1 is 6.96; at JAK2, 5.76; at JAK3 it was 6.15.

As for `Cc1nn(C)c(C)c1CN1CCC(n2c([C@@H](C)O)nc3cnc4[nH]ccc4c32)CC1` [Example 831, (R)-1-{1-[1-(1,3,5-Trimethyl-1H-pyrazol-4-ylmethyl)-piperidin-4-yl]-1,6-dihydro-1,3,5,6-tetraaza-as-indacen-2-yl}-ethanol], the pKi was 6.51 on JAK1, 5.57 on JAK2 and 6.00 on JAK3.

With `C[C@@H](O)c1nc2cnc3[nH]ccc3c2n1C1CCN(CC(=O)N2CCOCC2)CC1` [Example 870, 2-{4-[2-((R)-1-Hydroxy-ethyl)-6H-1,3,5,6-tetraaza-as-indacen-1-yl]-piperidin-1-yl}-1-morpholin-4-yl-ethanone], the figures for the pKi at JAK1, on JAK2 and on JAK3 were 6.57, 5.84 and 5.86, respectively.

On to `C[C@@H](O)c1nc2cnc3[nH]ccc3c2n1C1CCN(CC(=O)N2CCCC2)CC1` [Example 872, 2-{4-[2-((R)-1-Hydroxy-ethyl)-6H-1,3,5,6-tetraaza-as-indacen-1-yl]-piperidin-1-yl}-1-pyrrolidin-1-yl-ethanone], for which the pKi at JAK1 was 6.79; at JAK2, 6.01; on JAK3 it was 6.00.
